Marks after values point to notes of the source that are not given here.
Legend:
[1] = system: Botrytis cinerea; experiment: Test A: tomato seedlings sprayed, next day inoculated with Botrytis cinerea (tomato Botrytis), visual disease rating; type: in vivo; settings: sprayed day before inoculation; for pest or weed control at 40 ppm / pest or weed control at 200 ppm: Botrytis cinerea
Description: (§1) General protocol for preparing test suspensions for Tests A-F: the test compounds were first dissolved in acetone in an amount equal to 3% of the final volume and then suspended at the desired concentration (in ppm) in acetone and purified water (50/50 mix) containing 250 ppm of the surfactant Trem® 014 (polyhydric alcohol esters). The resulting test suspensions were then used in Tests A-F. Spraying a 200 ppm test suspension to the point of run-off on the test plants was the equivalent of a rate of 500 g/ha. An asterisk “*” next to the rating value indicates a 40 ppm test suspension.
The test suspension was sprayed to the point of run-off on tomato seedlings. The following day the seedlings were inoculated with a spore suspension of Botrytis cinerea (the causal agent of tomato Botrytis) and incubated in saturated atmosphere at 20° C. for 48 h, and then moved to a growth chamber at 24° C. for 3 days, after which time visual disease ratings were made.
(§2) Results for Tests A-F are given in Table A. In the Table, a rating of 100 indicates 100% disease control and a rating of 0 indicates no disease control (relative to the controls). A dash (-) indicates no test results. All results are for 200 ppm except where followed by “*”, which indicates 40 ppm.

[2] = system: Alternaria solani; experiment: Test B: tomato seedlings sprayed, next day inoculated with Alternaria solani (tomato early blight), visual disease rating; type: in vivo; settings: sprayed day before inoculation; for pest or weed control at 40 ppm / pest or weed control at 200 ppm: Alternaria solani
Description: as §1
The test suspension was sprayed to the point of run-off on tomato seedlings. The following day the seedlings were inoculated with a spore suspension of Alternaria solani (the causal agent of tomato early blight) and incubated in a saturated atmosphere at 27° C. for 48 h, and then moved to a growth chamber at 20° C. for 5 days, after which time visual disease ratings were made.
as §2

[3] = system: Septoria nodorum; experiment: Test C: wheat seedlings sprayed, next day inoculated with Septoria nodorum (wheat glume blotch), visual disease rating; type: in vivo; settings: sprayed day before inoculation; for pest or weed control at 40 ppm / pest or weed control at 200 ppm: Parastagonospora nodorum
Description: as §1
(§3) The test suspension was sprayed to the point of run-off on wheat seedlings. The following day the seedlings were inoculated with a spore suspension of Septoria nodorum (the causal agent of wheat glume blotch) and incubated in a saturated atmosphere at 24° C. for 48 h, and then moved to a growth chamber at 20° C. for 6 days, after which time visual disease ratings were made.
as §2

[4] = system: Septoria tritici; experiment: Test D: wheat seedlings sprayed, next day inoculated with Septoria tritici (wheat leaf blotch), visual disease rating; type: in vivo; settings: sprayed day before inoculation; for pest or weed control at 40 ppm / pest or weed control at 200 ppm: Zymoseptoria tritici
Description: as §1
as §3, with “tritici” for “nodorum”, “leaf” for “glume”, “in” for “in a”, “19” for “6”
as §2

[5] = system: Puccinia recondita f. sp. tritici; experiment: Test E1: wheat seedlings inoculated with Puccinia recondita f. sp. tritici (wheat leaf rust), sprayed afterwards, visual disease rating; type: in vivo; settings: sprayed after inoculation; for pest or weed control at 40 ppm / pest or weed control at 200 ppm: Puccinia recondita
Description: as §1
Wheat seedlings were inoculated with a spore suspension of Puccinia recondita f. sp. tritici (the causal agent of wheat leaf rust) and incubated in a saturated atmosphere at 20° C. for 24 h, and then moved to a growth chamber at 20° C. for 2 days. At the end of this time the test suspension was sprayed to the point of run-off on the wheat seedlings, and then the seedlings were moved to a growth chamber at 20° C. for 6 days, after which time visual disease ratings were made.
as §2

[6] = system: Puccinia recondita f. sp. tritici; experiment: Test E2: wheat seedlings sprayed, next day inoculated with Puccinia recondita f. sp. tritici (wheat leaf rust), visual disease rating; type: in vivo; settings: sprayed day before inoculation; for pest or weed control at 40 ppm / pest or weed control at 200 ppm: Puccinia recondita
Description: as §1
The test suspension was sprayed to the point of run-off on wheat seedlings. The following day the seedlings were inoculated with a spore suspension of Puccinia recondita f. sp. tritici (the causal agent of wheat leaf rust) and incubated in a saturated atmosphere at 20° C. for 24 h, and then moved to a growth chamber at 20° C. for 7 days, after which time visual disease ratings were made.
as §2

[7] = system: Erysiphe graminis; experiment: Test F: wheat seedlings sprayed, next day inoculated with Erysiphe graminis (wheat powdery mildew), visual disease rating; type: in vivo; settings: sprayed day before inoculation; for pest or weed control at 40 ppm / pest or weed control at 200 ppm: Blumeria graminis
Description: as §1
The test suspension was sprayed to the point of run-off on wheat seedlings. The following day the seedlings were inoculated with a spore dust of Erysiphe graminis, (the causal agent of wheat powdery mildew) and incubated in a growth chamber at 20° C. for 8 days, after which time visual disease ratings were made.
as §2

Structure (SMILES) | Test A rating (disease control) ([1]; 200 ppm test suspension) [%] | Test B rating (disease control) ([2]; 200 ppm test suspension) [%] | Test C rating (disease control) ([3]; 200 ppm test suspension) [%] | Test D rating (disease control) ([4]; 200 ppm test suspension) [%] | Test E1 rating (disease control) ([5]; 200 ppm test suspension) [%] | Test E2 rating (disease control) ([6]; 200 ppm test suspension) [%] | Test F rating (disease control) ([7]; 200 ppm test suspension) [%] | also measured
COc1ccc(-c2c(C)nnc(C(C)(C)O)c2-c2cc(OC)cc(OC)c2)cc1 [Compound 19] |  |  |  |  |  |  |  | Test A rating (disease control) ([1]; 40 ppm test suspension (*)): 84* %; Test B rating (disease control) ([2]; 40 ppm test suspension (*)): 99* %; Test C rating (disease control) ([3]; 40 ppm test suspension (*)): 0* %; Test D rating (disease control) ([4]; 40 ppm test suspension (*)): 97* %; Test E1 rating (disease control) ([5]; 40 ppm test suspension (*)): 0* %; Test E2 rating (disease control) ([6]; 40 ppm test suspension (*)): 96* %; Test F rating (disease control) ([7]; 40 ppm test suspension (*)): 27* %
COc1cc(OC)cc(-c2c(C(C)=O)nnc(C)c2-c2c(F)cc(F)cc2F)c1 [Compound 20, 1-[4-(3,5-dimethoxyphenyl)-6-methyl-5-(2,4,6-trifluorophenyl)-3-pyridazinyl]ethanone] |  |  |  |  |  |  |  | pest or weed control at 40 ppm ([1]; 40 ppm test suspension (*)): 99%; pest or weed control at 40 ppm ([2]; 40 ppm test suspension (*)): 26%; pest or weed control at 40 ppm ([3]; 40 ppm test suspension (*)): 0%; pest or weed control at 40 ppm ([4]; 40 ppm test suspension (*)): 96%; pest or weed control at 40 ppm ([5]; 40 ppm test suspension (*)): 41%; pest or weed control at 40 ppm ([6]; 40 ppm test suspension (*)): 99%; pest or weed control at 40 ppm ([7]; 40 ppm test suspension (*)): 98%
COc1cc(OC)cc(-c2c(C)nnc(Cl)c2-c2c(F)cccc2F)c1 [Compound 24, 3-chloro-4-(2,6-difluorophenyl)-5-(3,5-dimethoxyphenyl)-6-methylpyridazine] |  |  |  |  |  |  |  | pest or weed control at 40 ppm ([1]; 40 ppm test suspension (*)): 100%; pest or weed control at 40 ppm ([2]; 40 ppm test suspension (*)): 26%; pest or weed control at 40 ppm ([3]; 40 ppm test suspension (*)): 55%; pest or weed control at 40 ppm ([4]; 40 ppm test suspension (*)): 100%; pest or weed control at 40 ppm ([5]; 40 ppm test suspension (*)): 26%; pest or weed control at 40 ppm ([6]; 40 ppm test suspension (*)): 100%; pest or weed control at 40 ppm ([7]; 40 ppm test suspension (*)): 98%
COc1cc(OC)cc(-c2c(CCl)nnc(Cl)c2-c2c(F)cccc2F)c1 [Compound 26, 3-chloro-6-(chloromethyl)-4-(2,6-difluorophenyl)-5-(3,5-dimethoxyphenyl)-pyridazine] |  |  |  |  |  |  |  | pest or weed control at 40 ppm ([1]; 40 ppm test suspension (*)): 99%; pest or weed control at 40 ppm ([2]; 40 ppm test suspension (*)): 0%; pest or weed control at 40 ppm ([3]; 40 ppm test suspension (*)): 0%; pest or weed control at 40 ppm ([4]; 40 ppm test suspension (*)): 99%; pest or weed control at 40 ppm ([5]; 40 ppm test suspension (*)): 0%; pest or weed control at 40 ppm ([6]; 40 ppm test suspension (*)): 97%; pest or weed control at 40 ppm ([7]; 40 ppm test suspension (*)): 0%
COc1cc(OC)cc(-c2c(CC#N)nnc(Cl)c2-c2c(F)cccc2F)c1 [Compound 27, 6-chloro-5-(2,6-difluorophenyl)-4-(3,5-dimethoxyphenyl)-3-pyridazine-acetonitrile] |  |  |  |  |  |  |  | pest or weed control at 200 ppm ([1]; 200 ppm test suspension): 100%; pest or weed control at 200 ppm ([2]; 200 ppm test suspension): 99%; pest or weed control at 200 ppm ([3]; 200 ppm test suspension): 100%; pest or weed control at 200 ppm ([4]; 200 ppm test suspension): 100%; pest or weed control at 200 ppm ([5]; 200 ppm test suspension): 0%; pest or weed control at 200 ppm ([6]; 200 ppm test suspension): 100%; pest or weed control at 200 ppm ([7]; 200 ppm test suspension): 98%
COc1cc(OC)cc(-c2c(C)nnc(Cl)c2-c2ccc(F)cc2F)c1 [Compound 32] | 99 | 99 | 78 | 99 | 0 | 99 | 89 | 
COc1cc(OC)cc(-c2c(C)nnc(F)c2-c2c(F)cccc2F)c1 [Compound 33, 4-(2,6-difluorophenyl)-3-fluoro-5-(3,5-dimethoxyphenyl)-6-methylpyridazine] |  |  |  |  |  |  |  | pest or weed control at 200 ppm ([1]; 200 ppm test suspension): 99%; pest or weed control at 200 ppm ([2]; 200 ppm test suspension): 100%; pest or weed control at 200 ppm ([3]; 200 ppm test suspension): 99%; pest or weed control at 200 ppm ([4]; 200 ppm test suspension): 100%; pest or weed control at 200 ppm ([5]; 200 ppm test suspension): 60%; pest or weed control at 200 ppm ([6]; 200 ppm test suspension): 100%; pest or weed control at 200 ppm ([7]; 200 ppm test suspension): 99%; melting point: 150 to 151 °C
COc1cc(OC)cc(-c2c(CC#N)nnc(C)c2-c2c(F)cccc2F)c1 [Compound 35] | 98 | 99 | 99 | 100 | 46 | 100 | 99 | 
COc1cc(OC)c(Cl)c(-c2c(C)nnc(F)c2-c2c(F)cccc2F)c1 [Compound 36] | 99 | 100 | 60 | 100 | 100 | 100 | 100 | 
COc1cc(OC)cc(-c2c(C)nnc(Cl)c2-c2c(F)cccc2Cl)c1 [Compound 38] | 100 | 99 | 99 | 100 | 85 | 100 | 100 | 
COc1cc(OC)cc(-c2c(C)nnc(C)c2-c2c(F)cccc2Cl)c1 [Compound 39] | 100 | 99 | 99 | 100 | 99 | 100 | 98 | 
COc1cc(OC)cc(-c2c(C)nnc(C)c2-c2ccc(F)cc2F)c1 [Compound 40] | 100 | 99 | 97 | 100 | 0 | 100 | 95 | 
COc1cc(OC)c(Cl)c(-c2c(C)nnc(Cl)c2-c2c(F)cccc2Cl)c1 [Compound 41] | 99 | 99 | 0 | 100 | 86 | 100 | 100 | 
COc1cc(OC)c(Cl)c(-c2c(C)nnc(Cl)c2-c2c(F)cccc2Cl)c1Cl [Compound 42] | 0 | 0 | 0 | 60 | 0 | 89 | 42 | 
COc1cc(OC)c(Cl)c(-c2c(C)nnc(C)c2-c2c(F)cccc2Cl)c1 [Compound 43] | 62 | 82 | 99 | 100 | 0 | 100 | 100 | 
COc1cc(OC)c(Cl)c(-c2c(C)nnc(Cl)c2-c2ccc(F)cc2F)c1 [Compound 44] | 66 | 99 | 64 | 100 | 96 | 100 | 100 | 
COc1cc(-c2c(C)nnc(Cl)c2-c2ccc(F)cc2F)cc(OC)c1Cl [Compound 45] | 100 | 100 | 97 | 100 | 100 | 100 | 100 | 
COc1cc(OC)cc(-c2c(C)nnc(F)c2-c2ccc(F)cc2F)c1 [Compound 46] | 99 | 100 | 84 | 100 | 0 | 98 | 98 | 

Source: patent US20120135995A1, “FUNGICIDAL DIPHENYL-SUBSTITUTED PYRIDAZINES” (E.I. Dupont de Nemours and Company, priority 2009, published 2012)
